What was measured:
[1] = test system: ribosome stalling on trpL mRNA in a cell-free translation system; assay: toeprinting (primer extension inhibition) assay on trpL mRNA; type: biochemical; conditions: trpL mRNA template, 30 μM compound
Source text: To investigate the mechanism of action of CAM-C10-TPP and CAM-C14-TPP in the translation process, a primer extension inhibition assay (toeprinting) was used. This method allows for the unambiguous identification of drug-induced ribosome stalling sites along the mRNA, with single-nucleotide precision. This technique is also used to determine the context-specificity of antibiotic action. For this experiment, trpL mRNAs were chosen as the template, as in the pDualrep2 reporter system. […] Compared to the results obtained previously for CAM-C4-TPP using rst1 and rst2 mRNA templates, more unambiguous results were obtained using a trpL mRNA template. The main drug-induced ribosome stalling sites are different for CHL and CAM-Cn-TPP, and there are also CAM-Cn-TPP-specific stalling positions.
The toeprinting assay was carried out using trpL mRNA as a template, as described in [73], and the reactions were preincubated for 5 min with 30 μM of the tested compound.

B. subtilis cells = assay: membrane potential by DiS-C3-(5) fluorescence; type: cell-based, Bacillus subtilis
Source text: Thus, we further examined the effect of CAM-Cn-TPP on the bacterial membrane potential of B. subtilis. In particular, the membrane potential of B. subtilis can be estimated from the fluorescence of the potential-sensitive dye, DiS-C3-(5), by measuring the changing fluorescence. The potential-dependent accumulation of the dye inside the bacterial cell causes quenching and leads to a decrease in fluorescence. Under the influence of substances that reduce the membrane potential, the dye is released and the fluorescence increases. […] Therefore, the action of CAM-Cn-TPP may have a double effect on bacterial cells and be based on the depolarization of the bacterial membrane by analogy with the mechanism of action of Cn-TPP [17].
The membrane potential of B. subtilis was estimated by measuring the fluorescence of the potential-dependent probe, DiS-C3-(5). B. subtilis from the overnight culture were seeded into a fresh LB medium, followed by growth for […], until reaching the optical density of 0.8 at 600 nm. Then, the bacteria were diluted 20-fold in a buffer containing 100 mM of KCl and 10 mM of Tris, pH 7.4. The fluorescence was measured at 670 nm (excitation at 630 nm) using a Fluorat-02-Panorama fluorimeter.

[2] = test system: Escherichia coli C600recA naI; assay: MIC determination, CHL resistant E. coli strains; type: cell-based; conditions: C600RECANAI
Source text: (§1) Standard laboratory strains of Bacillus subtilis subs. subtilis Cohn 1872, stains BR151, and 168, Staphylococcus aureus subsp. aureus Rosenbach 1884 strains JCM 2151 and entry MC#144 (from the Microorganisms Collection of the Moscow State University), Listeria monocytogenes Pirie 1940, Mycobacterium smegmatis Lehmann and Neumann 1899 (MC#377), and Escherichia coli Castellani and Chalmers 1919, strain JW5503 (with the deletion of tolC gene), which are resistant to the chloramphenicol strains, J53rif, C600rif/pIB55-1, C600rif/pIP162-1, and C600recA naI, were used.
(§2) The MICs for CAM-Cn-TPP and Cn-TPP were determined by Mueller-Hinton broth microdilution, as recommended by CLSI in the Methods for Dilution Antimicrobial Susceptibility Tests for Bacteria that Grow Aerobically, Approved Standard, 9th ed., CLSI document M07-A9, using in-house-prepared panels. The compounds were diluted in a 96-well microtiter plate to final concentrations ranging from 0.5 to 360 μM in a 250-µL aliquot of the bacterial suspension, followed by incubation at 37 °C or 30 °C for 18 h. […] The bacterial growth was observed visually alongside OD measurements. The experiments were carried out in triplicate.

[3] = test system: Escherichia coli C600rif/pIB55-1; assay: MIC determination, CHL resistant E. coli strains; type: cell-based
Source text: as §1, §2

[4] = test system: Escherichia coli C600rif/pIP162-1; assay: MIC determination, CHL resistant E. coli strains; type: cell-based
Source text: as §1, §2

Escherichia coli J53rif = assay: MIC determination, CHL resistant E. coli strains; type: cell-based
Source text: as §1, §2

[5] = test system: CSC-like TNBC cells (MDA-MB-231 and BT-549, sensitive and chemoresistant); assay: tumoursphere formation and viability of CSC-like cells; type: cell-based; conditions: for survival of CSCs: CSCs from parental and resistant TNBC cell lines; for spheroid formation: non-adherent conditions, 5 days
Source text: Several TPP-containing compounds have been proposed for the elimination of CSCs by the Lisanti group. In the current work, we studied the effect of CAM-TPP derivatives on CSC-like TNBC cell models.
The MDA-MB-231 (RRID: CVCL_0062) and BT-549 (RRID: CVCL_1092) cell lines were purchased from ATCC and cultured in DMEM/F12 (Gibco, Life Technologies, 31330-038) supplemented with 10% FBS, 1% Pen-Strep, 1% Sodium Pyruvate, and 1% L-glutamine. Chemoresistant cell lines were established with continuous treatment for 6 months with the anticancer therapeutic agent, cyclophosphamide (Rcyclo), as previously described. These cell lines were authenticated using short tandem repeat (STR) profiling within the last three years. To obtain CSC-like cells, a single cell suspension was prepared using enzymatic disaggregation (1× Trypsin-EDTA, Gibco, 25300062), and the cells were plated at a density of 10.000–12.000 cells per ml in a Cancer Stem Cell medium (C-28070, PromoCell, Heidelberg, Germany) in poly-2-hydroxyethyl methacrylate (Poly-HEMA, Santa Cruz Biotechnology, Dallas, TX, USA, sc-253284)-coated plates. […] The cells were […] with corresponding compounds or DMSO (control), followed by the abovementioned procedure of tumoursphere formation. The relative numbers of tumourspheres per well were counted manually. The experiments were performed independently at least 2 times, with several replicates.
The survival assay was performed essentially as described earlier. In short, cells were seeded into a 96-well plate, followed by treatment with increasing concentrations of the corresponding CAM-TPP derivatives for 3 days. 3-(4,5-dimethylthiazol-2-yl)-2,5-diphenyltetrazolium bromide (0.5 mg/mL MTT; Sigma-Aldrich) dissolved in media was added to each well. Following incubation for 2 h, the supernatant was carefully removed from the wells, and 100 µL of a DMSO:ethanol mix (1:1) was added to each well, followed by shaking for 10 min. The absorbance was measured at 570 nm in Bio Spec 1601, Shimadzu spectrometer. The OD570 of the DMSO solution in each well was considered to be proportional to the number of cells. The OD570 of the control (treatment without supplement) was considered to be 100%. The results were expressed as the means ± SEM. The data were analyzed using the GraphPad Prism 7 PRIZM computer software under the license of the Statistical Department (Vall’ d Hebron Hospital, Barcelona, Spain).

| Compound | drug-induced ribosome stalling site [1] | effect on membrane potential (B. subtilis cells; 10 µM) | effect on membrane potential (B. subtilis cells; submicromolar concentrations) | MIC [2] [µM] | MIC [3] [µM] | MIC [4] [µM] | MIC (Escherichia coli J53rif) [µM] | survival of CSCs [5] | spheroid formation [5] |
| --- | --- | --- | --- | --- | --- | --- | --- | --- | --- |
| O=C(CCCCCCCCCC[P+](c1ccccc1)(c1ccccc1)c1ccccc1)N[C@H](CO)[C@H](O)c1ccc([N+](=O)[O-])cc1 [CAM-C10-TPP, (N-{[(1R,2R)-1,3-dihydroxy-1-(4-nitrophenyl)propan-2-yl]amino}-11-oxoundecyl)(triphenyl)phosphonium bromide] | blocked the ribosome progression at Val6 (Figure 2D, red arrowhead) and slightly blocked it at Ile4 | caused a rapid drop in the membrane potential to the level observed with the channel-forming antibiotic gramicidin A | caused a decrease in the membrane potential of B. subtilis on a minute time scale | 107 | 90 | > 199 | 110 | reduced the survival of CSCs formed from parental and resistant TNBC cell lines | significant decrease in spheroid formation |
| O=C(CCCCCCCCCC[P+](c1ccccc1)(c1ccccc1)c1ccccc1)NCCCC(=O)N[C@H](CO)[C@H](O)c1ccc([N+](=O)[O-])cc1 [CAM-C14-TPP, N-[(1R,2R)-1,3-dihydroxy-1-(4-nitrophenyl)propan-2-yl]-4-(triphenyl)phosphoniumundecanamidobutamide bromide] | blocked the ribosome progression at Val6 (Figure 2D, red arrowhead) and slightly blocked it at Ile4 | caused a rapid drop in the membrane potential to the level observed with the channel-forming antibiotic gramicidin A | caused a decrease in the membrane potential of B. subtilis on a minute time scale |  |  |  |  | reduced the survival of CSCs formed from parental and resistant TNBC cell lines | significant decrease in spheroid formation |
| O=C(N[C@H](CO)[C@H](O)c1ccc([N+](=O)[O-])cc1)C(Cl)Cl [CHL, chloramphenicol] | stalls ribosomes at the Ile4 codon |  |  | > 396 | > 396 | > 396 | > 396 |  |  |

Reference: article PMC8145938, “Triphenilphosphonium Analogs of Chloramphenicol as Dual-Acting Antimicrobial and Antiproliferating Agents” (Antibiotics, 2021)
